Assay results as given in US20240228476A1, “INHIBITORS OF PROTEIN TYROSINE PHOSPHATASE, COMPOSITIONS, AND METHODS OF USE” (BRISTOL-MYERS SQUIBB COMPANY, priority 2022, published 2024).
pEC50, pIC50: −log10 of the molar value.

Experiments:
PTPN2 [1] = target: T1, PTPN2 (Homo sapiens, UniProt P17706); experiment: Phosphatase activity assay using DiFMUP as substrate; assay type: biochemical; set-up: purchased MilliporeSigma SRP5075; conditions: 10 mM DTT, PTPN2 0.15 nM, room temperature, read-out: PTPN2 BCHEM DIFMUP IC50
T1 sequence (P17706 1-415): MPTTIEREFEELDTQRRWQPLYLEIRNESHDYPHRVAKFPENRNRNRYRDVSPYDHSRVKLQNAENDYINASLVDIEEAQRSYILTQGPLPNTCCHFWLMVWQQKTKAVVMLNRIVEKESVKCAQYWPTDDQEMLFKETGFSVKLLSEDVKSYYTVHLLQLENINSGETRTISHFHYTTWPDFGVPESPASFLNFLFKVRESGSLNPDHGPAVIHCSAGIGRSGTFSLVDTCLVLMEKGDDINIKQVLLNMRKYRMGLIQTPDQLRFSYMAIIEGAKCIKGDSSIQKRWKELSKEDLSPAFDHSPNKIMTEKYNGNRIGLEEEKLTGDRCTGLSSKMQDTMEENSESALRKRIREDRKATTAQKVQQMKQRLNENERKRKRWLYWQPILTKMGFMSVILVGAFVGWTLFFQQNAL
Procedure: The PTPN2 biochemical assay was performed as follows, a 5× stock solution of human PTPN2 (SRP5075, MilliporeSigma, Burlington, MA) and a 1.25× stock solution of DiFMUP (D6567, ThermoFisher Scientific, Waltham, MA), were prepared in 1× reaction buffer consisting of 50 mM HEPES, pH 7.4, 1 mM EDTA, 150 mM NaCl, 0.2 mg/mL BSA, 100 U/mL catalase and 10 mM DTT. […] of the DiFMUP substrate solution, for a final concentration of […] DiFMUP substrate, was added to a Corning 3574 384-well, white, non-binding surface microtiter plate containing […] of serially diluted test compounds prepared in DMSO. The reactions were started with the addition of […] of the enzyme solution, for a final PTPN2 concentration of 0.15 nM, and monitored every 105 seconds for 60 minutes at λEX 360/λEM 460 in a BioTek Synergy HTX plate reader (Agilent Technologies, Santa Clara, CA) at room temperature. The initial linear portions of the progress curves were fit according to a linear equation to yield the slopes and converted to % inhibition based on a value of 100% activity for the no inhibitor treated control. IC50 values of each compound were obtained by fitting the % inhibition-compound concentration curves using Dotmatics software (Dotmatics, Bishops Stortford, Hertfordshire, England)
(§1) For IC50 data, High DDT concentration and/or DiFMUP substrate assays were used; a skilled artisan may use either assay.

PTPN2 [2] = target: T1, PTPN2; experiment: PTPN2 biochemical assay (PhosphoSens, substrate AQT0264); conditions: PhosphoSens substrate AQT0264 20 μM, room temperature; read-out: PTPN2 BCHEM IC50
Procedure: A PhosphoSens® kinase assay was performed as described by the vendor (AssayQuant Technologies, Marlborough, MA). Briefly, 1000× solutions of compounds were prepared in DMSO via serial dilution of the 10 mM DMSO stocks using 3-fold intervals in a 384-well reagent plate. 50 nL of the compound dilution series was then added to the corresponding wells of a 384-well assay plate. 40 mL of 1.25× substrate (AQT0264) in 1× assay buffer (50 mM HEPES pH 7.5, 500 μM EGTA, […] MgCl2, 0.01% Brij-35, 1% Glycerol, 1 mM DTT, and 0.2 mg/mL BSA) was transferred to each well of the assay plate to achieve a final substrate concentration of 20 μM. Finally, […] of 5×PTPN2 enzyme stock was added to each well of the assay plate for a final enzyme concentration of […]. Reaction progress curves were collected by sampling fluorescence intensity at the excitation wavelength 360 nm (λex360) and emission wavelength 480 nm (λem480) every 71 seconds for one hour using a Synergy H4 plate reader (BioTek Instruments/Agilent Technologies, Winooski, VT) at room temperature.
as §1

phospho-STAT1 (Tyr701) = experiment: Phospho-STAT1 (Tyr701) HTRF assay in B16-F10 cells; assay type: cell-based; conditions: mouse IFN-gamma 100 ng/ml, 1 hour, read-out: pSTAT1 HTRF B16 EC50
Procedure: B16-F10 cells (ATCC, Manassas, VA, #CRL-6475) were cultured in DMEM growth medium (ThermoFisher Scientific, Waltham, MA, #11995-040) supplemented with 10% heat inactivated FBS (ThermoFisher Scientific, #16140-071) and 1% pen/strep (ThermoFisher Scientific, #15140-122). The cells were seeded into a white opaque 384-well tissue culture treated microplate (PerkinElmer, Waltham, MA, #6007688) at a density of 10,000 cells/well in 20 uL total volume and incubated overnight at 37 C and 5% CO2. 30 nL of compounds dissolved in DMSO were then transferred from a source plate into target wells with the Echo650 acoustic liquid handler (Beckman Coulter, Indianapolis, IN). Negative control wells received 30 nL of DMSO only (0.15% final concentration). Plates were returned to the incubator for 1 hour and then cells treated with either 5 uL of growth medium or 5 uL of growth medium containing 500 ng/ml of recombinant mouse IFN-gamma protein (R&D Systems, Minneapolis, MN, #485-MI/CF, 100 ng/ml final concentration) using the Assist automated pipetting platform (INTEGRA Biosciences, Hudson, NH). Plates were incubated at 37 C for 1 hour and assayed for phosphorylated STAT1 protein levels with the phospho-STAT1 (Tyr701) HTRF kit (Cisbio, Bedford, MA, #63ADK026PEH) according to manufacturer's instructions. HTRF signal intensity was collected with the En Vision 2105 plate reader (PerkinElmer) 24 hours later and analyzed with the Dotmatics software platform to calculate compound IC50 values.

B16-F10 cells = experiment: Cell proliferation assay (CellTiter-Glo) in B16-F10 cells with IFN-gamma; assay type: cell-based; conditions: 120 h, mouse IFN-gamma 10 ng/mL, read-out: PTPN2 Prolif 5d B16F10 EC50
Procedure: B16-F10 cells (ATCC, Manassas, VA, #CRL-6475) were cultured in DMEM growth medium (ThermoFisher Scientific, Waltham, MA, #11995-040) supplemented with 10% heat inactivated FBS (ThermoFisher Scientific, #16140-071) and 1% pen/strep (ThermoFisher Scientific, #15140-122). The cells were seeded into two white opaque 384-well tissue culture treated microplates (PerkinElmer, Waltham, MA, #6007688) at a density of 100 cells/well in 20 uL total volume and incubated overnight at 37 C and 5% CO2. 30 nL of compounds dissolved in DMSO were then transferred from a source plate into target wells with the Echo650 acoustic liquid handler (Beckman Coulter, Indianapolis, IN). Negative control wells received 30 nL of DMSO only (0.15% final concentration). Plates were returned to the incubator for 1 hour and then cells treated with either 5 uL of growth medium or 5 uL of growth medium containing 50 ng/ml of recombinant mouse IFN-gamma protein (R&D Systems, Minneapolis, MN, #485-MI/CF, 10 ng/mL final concentration) using the Assist automated pipetting platform (INTEGRA Biosciences, Hudson, NH). Plates were incubated at 37 C for 4 days and cell proliferation assayed with the CellTiter-Glo reagent (Promega, Madison, WI, #G7573, 25 uL per well). […] Off-target compound mediated cytotoxicity was identified by checking for growth inhibition in the absence of IFNg.

Row | Structure (SMILES) | pIC50 (PTPN2 [1]) | pIC50 (PTPN2 [2]) | pEC50 (phospho-STAT1 (Tyr701)) | pEC50 (B16-F10 cells)
1 | COc1ncc(C)c(NCc2cc(O)c(N3CC(=O)NS3(=O)=O)c(F)c2)n1 [EXAMPLE 22, 5-[2-fluoro-6-hydroxy-4-[[(2-methoxy-5-methyl-pyrimidin-4-yl)amino]methyl]phenyl]-1,1-dioxo-1,2,5-thiadiazolidin-3-one] | 7.30 | 7.70 | 5.17 | 4.96
2 | COc1cncc(NCc2cc(O)c(N3CC(=O)NS3(=O)=O)c(F)c2)n1 [EXAMPLE 23, 5-[2-fluoro-6-hydroxy-4-[[(6-methoxypyrazin-2-yl)amino]methyl]phenyl]-1,1-dioxo-1,2,5-thiadiazolidin-3-one] | 7.70 | 8.00 | 5.72 | 5.81
3 | Cc1nccc(NCc2cc(O)c(N3CC(=O)NS3(=O)=O)c(F)c2)n1 [EXAMPLE 24, 5-[2-fluoro-6-hydroxy-4-[[(2-methylpyrimidin-4-yl)amino]methyl]phenyl]-1,1-dioxo-1,2,5-thiadiazolidin-3-one] | 7.52 | 7.52 | 6.10 | 5.37
4 | Cc1cc(NCc2cc(O)c(N3CC(=O)NS3(=O)=O)c(F)c2)ncn1 [EXAMPLE 26, 5-[2-fluoro-6-hydroxy-4-[[(6-methylpyrimidin-4-yl)amino]methyl]phenyl]-1,1-dioxo-1,2,5-thiadiazolidin-3-one] | 7.70 | 8.40 | 5.92 | 6.33
5 | Cc1ncc(C)c(NCc2cc(O)c(N3CC(=O)NS3(=O)=O)c(F)c2)n1 [EXAMPLE 27, 5-[4-[[(2,5-dimethylpyrimidin-4-yl)amino]methyl]-2-fluoro-6-hydroxy-phenyl]-1,1-dioxo-1,2,5-thiadiazolidin-3-one] | 7.52 | 7.40 | 5.07 | 5.00
6 | CC(C)(C)c1ccc(Oc2ccc(NCc3cc(O)c(N4CC(=O)NS4(=O)=O)c(F)c3)cn2)cc1 [EXAMPLE 31, 5-[4-[[[6-(4-tert-butylphenoxy)-3-pyridyl]amino]methyl]-2-fluoro-6-hydroxy-phenyl]-1,1-dioxo-1,2,5-thiadiazolidin-3-one] | 7.22 | 7.70 | < 4.82 | < 4.82
